Literature values as cited in patent publication US20210283219A1, “INHIBITION OF ALTERNATIVE COMPLEMENT PATHWAY FOR TREATMENT OF RETINAL ISCHEMIC INJURY AND GLAUCOMA” (Massachusetts Eye and Ear Infirmary, priority 2017, published 2021).

Target: complement factor B (Homo sapiens, UniProt P00751)
Sequence (P00751 26-764, species assumed): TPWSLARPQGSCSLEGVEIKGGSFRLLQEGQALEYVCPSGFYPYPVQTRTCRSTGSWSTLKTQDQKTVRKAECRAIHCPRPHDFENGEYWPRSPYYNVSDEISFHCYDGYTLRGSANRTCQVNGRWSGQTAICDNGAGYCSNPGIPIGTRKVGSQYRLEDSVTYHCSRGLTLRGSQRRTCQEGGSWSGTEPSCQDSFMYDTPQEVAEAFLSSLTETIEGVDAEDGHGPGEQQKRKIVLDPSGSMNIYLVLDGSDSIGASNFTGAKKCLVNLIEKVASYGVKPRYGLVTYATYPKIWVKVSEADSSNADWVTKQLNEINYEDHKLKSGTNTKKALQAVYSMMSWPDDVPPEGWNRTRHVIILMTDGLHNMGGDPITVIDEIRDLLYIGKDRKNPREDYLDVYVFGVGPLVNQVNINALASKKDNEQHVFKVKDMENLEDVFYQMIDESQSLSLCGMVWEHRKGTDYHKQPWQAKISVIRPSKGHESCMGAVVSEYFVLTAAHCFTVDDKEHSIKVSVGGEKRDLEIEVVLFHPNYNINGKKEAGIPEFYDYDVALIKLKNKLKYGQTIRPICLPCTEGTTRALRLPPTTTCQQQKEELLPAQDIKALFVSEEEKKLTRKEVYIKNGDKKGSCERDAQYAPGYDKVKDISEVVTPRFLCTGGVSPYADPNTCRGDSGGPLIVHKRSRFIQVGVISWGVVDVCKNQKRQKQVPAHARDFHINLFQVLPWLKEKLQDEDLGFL

- inhibition of complement factor B: potently inhibits
Substance: (2S)-2-[[(2S)-2 [[(2S)-2-[[(2S)-[[(2S)-2-[[(2S)-2-acetamido-5-(diaminomethylideneamino)pentanoyl]amino]-4-methylpentanoyl]amino]-4,4-dimethylpentanoyl]amino]-4-methylpentanoyl]amino]propanoyl]amino]-5-(diaminomethylideneamino)pentanoic acid [Compound 51]
